By Km is commonly meant the substrate concentration at which the rate is half of its maximum.

For this series, the target named is T1, CYP2A6 (Homo sapiens, UniProt P11509).
T1 sequence (P11509 1-494): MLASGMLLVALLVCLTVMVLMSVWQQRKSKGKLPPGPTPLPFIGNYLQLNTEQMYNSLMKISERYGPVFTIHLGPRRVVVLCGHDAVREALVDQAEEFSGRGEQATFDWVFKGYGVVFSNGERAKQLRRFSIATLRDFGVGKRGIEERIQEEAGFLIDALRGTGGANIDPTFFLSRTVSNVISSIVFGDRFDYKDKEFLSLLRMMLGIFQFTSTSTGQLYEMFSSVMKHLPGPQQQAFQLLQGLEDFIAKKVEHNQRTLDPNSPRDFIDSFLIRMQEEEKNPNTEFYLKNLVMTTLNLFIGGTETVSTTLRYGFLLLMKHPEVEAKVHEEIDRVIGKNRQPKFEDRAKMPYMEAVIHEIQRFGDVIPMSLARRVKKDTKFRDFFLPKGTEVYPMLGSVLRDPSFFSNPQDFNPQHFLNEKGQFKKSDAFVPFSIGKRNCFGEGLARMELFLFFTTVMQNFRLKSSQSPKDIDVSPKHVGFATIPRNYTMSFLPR
Nature of the series: 5-FU formation from FT enantiomers by cDNA-expressed CYP2A6 (kinetics, velocity, RAF contribution). Particulars: for CYP contribution: CYP2A6, RAF method, 30 μmol/L. From the text:
Human hepatic 9000g supernatant (S9) and cytosolic fraction were purchased from XenoTech, LLC. (pooled preparations from 20 donors; Kansas City, KS). Human hepatic microsomes from five individuals (HG32, HH94, HH81, HH74, and HH31), a pooled preparation from 150 donors, and microsomes prepared from insect cell lines expressing CYP1A2, 2A6, 2B6, 2C8, 2C9, 2C19, 2D6, 2E1, and 3A4 were purchased from BD Gentest. Insect microsomes expressing only NADPH-P450 oxidoreductase and cytochrome b5 were also used as control. These enzymes were stored at −80°C until use.
Metabolic reaction by S9 and cytosol (each 2 mg protein/mL) was carried out in 100 mmol/L phosphate (pH 7.4) because TPase requires phosphate ions for catalyzing the reaction. In some cases, insect microsomes expressing recombinant CYP isoforms (20 pmol/mL) were added to the incubation mixtures in either 50, 100 mmol/L phosphate (pH 7.4) or 100 mmol/L Tris (pH 7.4), depending on supplier's recommendation. Microsomal protein concentrations of all cDNA-expressed CYPs were adjusted to 0.5 mg protein/mL by adding control microsomes expressing NADPH-P450 oxidoreductase and cytochrome b5. The reaction for the assay of FT metabolism was initiated by adding the substrate, following preincubation for 5 min at 37°C. After incubation at 37°C, the reaction was stopped by adding three volumes of ice-cold acetonitrile. The incubation times of microsomes, cytosol, and S9 were 15, 15, and 30 min, respectively. After centrifugation, the supernatant was collected and stored at −80°C until the determination of 5-FU. Because a small portion of FT is nonenzymatically converted to 5-FU, the content of 5-FU spontaneously formed was subtracted from total yield obtained after incubation to correct the activity. The spontaneous degradation of FT to 5-FU was evaluated using enzymes inactivated by heating them at 100°C for 5 min.
Concentration of 5-FU was determined using a LC/MS/MS system. The analytical system consisted of a HP1100 liquid chromatograph (Agilent Technologies, CA) coupled with an API4000 triple-quadrupole mass spectrometer (Applied Biosystems, CA) equipped with Turbo V source and ESI interface. Sample separation was performed using an Unison UK-Amino column (2.0 mm i.d. × 100 mm, 3 μm; Imtakt, Kyoto, Japan) at a flow rate of 0.2 mL/min at 40°C. The mobile phase consisted of 10 mmol/L ammonium acetate/acetonitrile 10:90 (v/v). […] For quantification of 5-FU, the calibration curves were linear over the range 2–1000 ng/mL.
Kinetic studies were performed using microsomes from five human livers (HG32, HH94, HH81, HH74, and HH31), cDNA-expressed CYP isoforms, or pooled human hepatic cytosol. In determining kinetic parameters, FT concentration ranged from 0.03 to 10 mmol/L. All reactions were performed in a linear range of 5-FU formation with respect to protein or CYP concentrations and incubation time.
Intrinsic clearance (CLint) was calculated as a ratio of V/S where V and S were the metabolite formation rate and the concentration of a probe substrate for CYP isoform, respectively, when the substrate concentration was well below the Km value. The RAF for each CYP isoform was calculated according to equation (3) (Venkatakrishnan et al. [2000]). [drawing 3] (3) n = 1A2, 2A6, 2C19, or 2E1.
The contribution of CYPn to the metabolism of R- and S-FT at their concentration of 30 μmol/L was subsequently calculated using equation (4). [drawing 4] (4) VCYPn = 5-FU formation rate in cDNA-expressed CYPn.

Take `O=c1[nH]c(=O)n([C@H]2CCCO2)cc1F` [R-FT]: the CYP contribution is on record as 87.6%. Besides, for the setting “cDNA-expressed CYP2A6”, the CLint was determined as 26 nL min^−1 pmol^−1 CYP, the Km turned out to be 170 ± 10 µM and the Vmax was 4.5 ± 0.1 pmol min^−1 pmol^−1 CYP.
`O=c1[nH]c(=O)n([C@@H]2CCCO2)cc1F` [S-FT] returned a CYP contribution of 84.8%. Further, for the setting “cDNA-expressed CYP2A6”, the CLint turned out to be 4.9 nL min^−1 pmol^−1 CYP and the Vmax worked out at 5.6 ± 0.3 pmol min^−1 pmol^−1 CYP.
